Entries after “also recorded” stand apart in the source; their conditions may differ. Marks after values point to notes of the source that are not given here.
Tests used:
AR = target: T1, AR (Homo sapiens, UniProt P10275); experiment: [3H]R1881 binding assay on cytosol fractions of BPH fragments; design: from tissue; host or cells: human BPH prostatic tissue, cytosol fraction
T1 sequence (P10275 1-920): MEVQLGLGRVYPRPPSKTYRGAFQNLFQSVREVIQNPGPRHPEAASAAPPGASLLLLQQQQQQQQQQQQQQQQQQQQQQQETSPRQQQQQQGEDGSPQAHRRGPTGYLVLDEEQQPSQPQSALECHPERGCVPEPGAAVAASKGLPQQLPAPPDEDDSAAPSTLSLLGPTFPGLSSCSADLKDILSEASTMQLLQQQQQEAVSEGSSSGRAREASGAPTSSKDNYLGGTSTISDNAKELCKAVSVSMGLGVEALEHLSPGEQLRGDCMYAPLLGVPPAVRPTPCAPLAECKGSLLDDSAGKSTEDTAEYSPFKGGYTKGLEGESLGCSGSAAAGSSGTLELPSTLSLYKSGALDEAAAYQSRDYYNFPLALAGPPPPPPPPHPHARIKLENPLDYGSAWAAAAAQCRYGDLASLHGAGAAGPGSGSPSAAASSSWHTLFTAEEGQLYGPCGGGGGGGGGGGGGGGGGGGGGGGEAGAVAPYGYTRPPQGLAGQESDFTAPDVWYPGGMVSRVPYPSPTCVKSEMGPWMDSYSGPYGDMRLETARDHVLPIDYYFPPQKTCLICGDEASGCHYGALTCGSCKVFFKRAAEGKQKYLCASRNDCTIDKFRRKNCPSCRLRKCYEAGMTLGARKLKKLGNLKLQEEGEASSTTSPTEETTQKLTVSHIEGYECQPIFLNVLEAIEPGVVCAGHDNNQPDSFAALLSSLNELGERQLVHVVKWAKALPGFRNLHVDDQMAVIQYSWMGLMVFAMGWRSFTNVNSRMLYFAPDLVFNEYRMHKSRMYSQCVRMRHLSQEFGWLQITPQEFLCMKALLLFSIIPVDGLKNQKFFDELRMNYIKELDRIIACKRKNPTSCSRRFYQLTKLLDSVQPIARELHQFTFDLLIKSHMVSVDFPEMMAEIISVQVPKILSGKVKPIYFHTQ
Procedure: Prostatic tissues for binding assay were obtained from patients who underwent suprapubic adenomectomy for BPH. No pharmacological treatment was performed in the 3 months preceding surgery. After surgery, the tissues were immediately placed in liquid nitrogen and stored at −80° C. until processing.
Protein content was determined by the known method of Bradford, using BSA as a standard.

BPH cells [1] = experiment: BPH cell proliferation assay; assay type: cell-based, human; settings: 48 h; for BPH cell proliferation increased by stimulus: T 10 nM or GF 10 ng/ml; for effect on DHT-stimulated BPH cell proliferation: DHT 10 nM; for effect on DHT-stimulated BPH cell proliferation / effect on T-stimulated BPH cell proliferation: Compound A 1 nM, F 1 nM, Cyp 100 nM; for effect on T-stimulated BPH cell proliferation: T 10 nM
Procedure: (§1) Human BPH cells, prepared, maintained and used as previously described in Crescioli C, et al. Journal of Clinical and Endocrinology Metabolism (2000) 85 p 2576-2583, were obtained from prostate tissues derived from 5 patients, who underwent suprapubic adenomectomy for BPH, after informed consent and approval by the Local Ethical Committee.
For all cell proliferation assay, 4×10^4 BPH cells were seeded onto 12-well plates in their growth medium, starved in red- and serum-free medium containing 0.1% BSA for 24 h, and then treated with specific stimuli for 48 h. Cells in phenol red- and serum-free medium containing 0.1% BSA were used as controls. Thereafter, cells were trypsinized, and each experimental point was derived from hemocytometer counting, averaging at least six different fields for each well, as previously reported (see Crescioli C, et al. Journal of Clinical and Endocrinology Metabolism (2000) 85 p 2576-2583). […] Growth assays were also carried out using a fixed concentration of androgens (10 nM) with or without Compound A (1 nM, 10 nM) or the anti-androgens finasteride (F, 1 nM) and cyproterone acetate (Cyp, 100 nM). Growth assays were also performed using a fixed concentration of T (10 nM) or GFs (10 ng/ml) with or without Compound A (10 nM). In the same experiment, each experimental point was repeated in triplicate or quadruplicate and experiments were performed 3 times. Results are expressed as % variation (mean±SEM) over the maximal T or GF-induced stimulation.

BPH cells [2] = experiment: In situ end labeling (ISEL) of apoptotic BPH cells; assay type: cell-based, human; settings: for change in percentage of apoptotic nuclei vs untreated cells: 48 h, Compound A 10 nM, T 10 nM, GFs 10 ng/ml
Procedure: as §1
ISEL was performed onto BPH cells using Apop Tag in situ apoptosis detection kit peroxydase following the manufacturer's instruction. Cells were incubated with T (10 nM), KGF (10 ng/ml) or Des(1-3)IGF-I (10 ng/ml) with or without Compound A (10 nM). The percentage of apoptotic cells (the number of stained cells divided by the total number of cells) was calculated in at least five separate fields per slide in five different slides. Results are expressed as mean±SEM from three separate experiments.

5α reductase type 1 = target: T2, 5α reductase type 1 (Homo sapiens, UniProt P18405); experiment: 5α reductase inhibition test in CHO 1827 cells; assay type: cell-based; settings: CHO cells transfected with type 1, n=3
T2 construct: host or cells: CHO 1827
T2 sequence (P18405 1-259): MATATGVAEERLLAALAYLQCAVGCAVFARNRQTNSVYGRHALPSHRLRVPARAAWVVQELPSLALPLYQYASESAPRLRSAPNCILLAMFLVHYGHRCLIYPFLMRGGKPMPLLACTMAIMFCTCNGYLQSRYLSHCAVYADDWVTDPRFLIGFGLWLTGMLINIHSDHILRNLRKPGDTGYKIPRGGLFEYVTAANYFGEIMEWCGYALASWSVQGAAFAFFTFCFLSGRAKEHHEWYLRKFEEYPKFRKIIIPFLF
Procedure: (§2) CHO-1827 and CHO-1829 cells, transfected with 5α reductase type 1 (5αR-1) or type 2 (5αR-2), respectively (see Steers W. Urology (2001) 58 p 17-24), were maintained in Ham's F12 medium supplemented with 5% FCS.
(§3) 5α reductase inhibition assay was performed using CHO 1827 cells, transfected with 5αR-1, or CHO 1829 cells, transfected with 5αR-2, as described (see Guarna A, et al. Journal of Medicinal Chemistry (2000) 43 3718-3735.). Compound A was added in a concentration range from 10^−9 to 10^−5 M, using finasteride as a control inhibitor in each experiment.

5α reductase type 2 = target: T3, 5α reductase type 2 (Homo sapiens, UniProt P31213); experiment: 5α reductase inhibition test in CHO 1829 cells; assay type: cell-based; settings: CHO cells transfected with type 2, n=3
T3 construct: host or cells: CHO 1829
T3 sequence (P31213 1-254): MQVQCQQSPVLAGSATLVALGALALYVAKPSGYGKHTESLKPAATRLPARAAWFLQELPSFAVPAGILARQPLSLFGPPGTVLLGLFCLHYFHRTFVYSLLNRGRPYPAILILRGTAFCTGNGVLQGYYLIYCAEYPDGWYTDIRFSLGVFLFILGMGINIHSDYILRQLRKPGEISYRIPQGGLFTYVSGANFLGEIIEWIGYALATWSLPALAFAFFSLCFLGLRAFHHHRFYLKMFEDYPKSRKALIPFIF
Procedure: as §2, §3

rat ventral prostate = experiment: Clusterin expression (Northern, immunohistochemistry) and TUNEL in rat ventral prostate; assay type: in vivo; settings: orchidectomized T-supplemented rats; Compound A 300 and 100 μg/Kg, F 40 mg/Kg
Procedure: Total RNA was extracted using RNAFast from Molecular System (San Diego, Calif.). Blotting, labelling, hybridization conditions and probes (rat clusterin 1.5 Kb full-length cDNA and GAPDH 1.2 Kb full-length cDNA) were performed according to the reported procedures (Bettuzzi et al, Biochemical Journal, (1989), 257, p 293-296 and Marinelli et al, Biochemistry and Cell Biology, (1994), 72, p 515-521). Quantitation of the autoradiograms was obtained by densitometric scanning using an LKB Ultrascan XL densitometer.
All the cryostatic sections obtained from controls and treated rats were processed in parallel as previously described (Astancolle et al, Journal of Endocrinology, (2000), 167, p 197-204). For every experimental condition, 3 alternate sections from 3 different rat prostates were examined. […] Counterstaining was performed with haematoxylin, and cover slips were mounted with Eukitt (O. Kindler GmbH & Co, Germany). Digital high-magnification colour images were acquired by a CCD camera through the microscope.
DNA fragmentation in prostate cryostatic sections, assessed by terminal deoxynucleotidyl transferase (TdT)-mediated dUTP nick end-labelling (TUNEL), was performed using the In Situ Cell Death Detection Kit (POD, Roche) as recommended by the manufacturer. TUNEL positive apoptotic nuclei were documented by digital high-magnification colour images acquired by a CCD camera through the microscope. Counterstaining was performed with eosin, and cover slips were mounted with Eukitt (O Kindler GmbH & Co, Germany).

Molecule	BPH cell proliferation increased by stimulus (BPH cells [1]) [%]	change in percentage of apoptotic nuclei vs untreated cells (BPH cells [2]) [%]	effect on DHT-stimulated BPH cell proliferation (BPH cells [1])	effect on T-stimulated BPH cell proliferation (BPH cells [1])	other results
C[C@]1(O)CC[C@H]2[C@@H]3CCC4=CC(=O)CCC4=C3C=C[C@@]21C [Compound R1881, reference compound]					competition for [3H]-R1881 binding (AR): completely displaced
C[C@]12CC[C@H]3[C@@H](CCC4=CC(=O)CC[C@@]43C)[C@@H]1CC[C@@H]2O [T, testosterone, reference compound]	156±8	−27			
C=C1/C(=C\C=C2/CCC[C@]3(C)[C@@H]([C@H](C)CCCC(C)(C)O)CC[C@@H]23)C[C@@H](O)C[C@@H]1O [calcitriol, 1,25-dihydroxyvitamin D3, reference compound]					IC50 (BPH cells [1]; Homo sapiens, read-out: −log IC50, inhibition of BPH cell growth (converted)): 0.0631 nM; maximal inhibition (Imax) of BPH cell growth (BPH cells [1]; unstimulated BPH cells, Imax shared by both secosteroids): 43±1%
CC(=O)O[C@]1(C(C)=O)CC[C@H]2[C@@H]3C=C(Cl)C4=CC(=O)[C@@H]5C[C@@H]5[C@]4(C)[C@H]3CC[C@@]21C [cyproterone acetate, reference compound]			significantly blocked	significantly blocked	
CC(C)(C)NC(=O)[C@H]1CC[C@H]2[C@@H]3CC[C@H]4NC(=O)C=C[C@]4(C)[C@H]3CC[C@]12C [finasteride, 17β-(N,t-butyl)carbamoyl-4-aza-5α-androst-1-en-3-one, reference compound]			effective only against T	antagonized only T-induced cell growth; also recorded: effective only against T	IC50 (5α reductase type 1): 659 ± 100 nM; IC50 (5α reductase type 2): 53.7 ± 11 nM; clusterin mRNA expression in ventral prostate (Northern) (rat ventral prostate): partially blunted the T-induced down-regulation of clusterin gene expression
KGF: Keratinocyte growth factor from Pepro Tech EC (protein, UniProt P21781 32-194, looked up) Fibroblast growth factor 7: CNDMTPEQMATNVNCSSPERHTRSYDYMEGGDIRVRRLFCRTQWYLRIDKRGKVKGTQEMKNNYNIMEIRTVAVGIVAIKGVESEFYLAMNKEGKLYAKKECNEDCNFKELILENHYNTYASAKWTHNGGEMFVALNQKGIPVRGKKTKKEQKTAHFLPMAIT	183±5	−54			Apoptotic index (%) (BPH cells [2]; GF 10 ng/ml or T 10 nM alone, ISEL): 8.5 ± 0.42^a %

Reference: patent publication US7332482B2, “Method for treating benign prostatic hyperplasia” (BioXell S.p.A., priority 2003, dated 2008)
